Each structure is given as a SMILES string. Read-outs that look alike come from different tables or passages of the source.

The source of these data is paper PMC10187112 (Journal of Enzyme Inhibition and Medicinal Chemistry, 2023).

In assay [1] the target is T1, human dopamine D2 (D2S) receptor (Homo sapiens, UniProt P14416).
T1 construct: expressed in transfected cells; host or cells: CHO-K1
Description: Competition radioligand binding, [3H]-spiperone, CHO-K1 membranes. The note with it: for Ki: human cloned D2S; for inhibition at 10 µM: read-out: % inh. at 10 μM D2.
Description: (§1) Experiments were carried out in membranes from cell lines stably expressing the human cloned receptors.
(§2) Competition radioligand binding assays were performed on membranes isolated from cell lines stable expressing the cloned human receptors, which were either in-house or commercially available. […] Assays (250 μL assay final volume) were carried out in 96-well polypropylene plates in duplicate. In short, suspension of appropriate membrane protein was incubated in assay buffer with addition of the corresponding radioligand, in the presence or absence of tested compound or reference compound. […] After the incubation, the content of the test plates was transferred to 96-well plates with glass fibre filter GF/B or GF/C, previously pre-treated with polyethyleneimine (PEI), and rapidly filtered with the use of vacuum, followed by rapid washing with cold (4 °C) wash buffer. After that the filter plates were dried at 60 °C for 1 h. Then, 30 μL of liquid scintillation cocktail (UniverSol-ES, MP Biomedicals, Solon, OH) was added to each well of the filter plates and the radioactivity was measured in a MicroBeta2 microplate scintillation counter (PerkinElmer, Madrid, Spain).
(§3) Competition binding curves were fitted to a one-site competition binding model (Fit Ki) with the use of Prism 7 software (GraphPad, San Diego, CA). logKi (log of the equilibrium dissociation constant (Ki)) values were obtained after constraining the concentration of radioligand employed in the assay and its dissociation constant (KD) as determined in saturation radioligand binding assays.

In assay [2] the target is T2, human serotonin 5-HT2A receptor (Homo sapiens, UniProt P28223).
T2 construct: expressed in transfected cells; host or cells: CHO-K1
Description: Competition radioligand binding, [3H]-Ketanserin, CHO-K1 membranes. The note with it: for Ki: human cloned 5-HT2A; for pKi 5-HT2A/pKi D2: ratio of pKi values; for inhibition at 10 µM: read-out: % inh. at 10 μM 5-HT2A.
Description: as §1, §2, §3

Assay [3] addresses T3, human serotonin 5-HT1A receptor (Homo sapiens, UniProt P08908).
T3 construct: expressed in transfected cells; host or cells: HEK293
T3 sequence (P08908 1-422): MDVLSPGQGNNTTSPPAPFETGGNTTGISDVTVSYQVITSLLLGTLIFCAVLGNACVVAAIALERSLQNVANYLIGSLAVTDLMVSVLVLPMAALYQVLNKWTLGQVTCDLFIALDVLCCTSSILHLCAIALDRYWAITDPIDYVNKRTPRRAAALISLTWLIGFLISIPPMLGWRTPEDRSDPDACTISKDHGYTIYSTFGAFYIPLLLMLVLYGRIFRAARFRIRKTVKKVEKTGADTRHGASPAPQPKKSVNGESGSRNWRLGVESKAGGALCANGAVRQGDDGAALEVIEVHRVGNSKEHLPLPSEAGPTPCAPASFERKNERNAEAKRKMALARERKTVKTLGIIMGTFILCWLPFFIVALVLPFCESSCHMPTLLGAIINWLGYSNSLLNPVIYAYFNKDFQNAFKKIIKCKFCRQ
As to the kind of experiment: Competition radioligand binding, [3H]-8-OH-DPAT, HEK293 membranes. The note with it: for Ki: human cloned 5-HT1A, read-out: Ki 5-HT1A (converted); for inhibition at 10 µM: read-out: % inh. at 10 μM 5-HT1A.
Description: as §1, §2, §3

A further assay addresses human D2S receptor (Homo sapiens, UniProt P14416). Description: Functional assay of cAMP signalling (D2 antagonism), CHO-K1 cells.
In another assay the target is T4, human 5-HT7 receptor (Homo sapiens, UniProt P34969).
T4 construct: expressed in transfected cells; host or cells: HEK293
As to the kind of experiment: Competition radioligand binding, [3H]-SB269970, HEK293 membranes.

Another assay addresses T5, human 5-HT1A receptor (Homo sapiens, UniProt P08908).
T5 construct: expressed in transfected cells; host or cells: HEK293
T5 sequence (P08908 1-422): T3 sequence (P08908 1-422)
As to the kind of experiment: Functional assay of cAMP signalling (5-HT1A agonism), HEK293 cells. It is filed as cell-based.

Assay [4] deals with T6, human dopamine D3 receptor (Homo sapiens, UniProt P35462).
T6 construct: expressed in transfected cells; host or cells: CHO-K1
Description: Competition radioligand binding, [3H]-spiperone, CHO-K1 membranes.
Description: as §2, §3

Assay [5] deals with T7, human muscarinic M1 receptor (Homo sapiens, UniProt P11229).
T7 construct: expressed in transfected cells; host or cells: CHO-K1
T7 sequence (P11229 1-460): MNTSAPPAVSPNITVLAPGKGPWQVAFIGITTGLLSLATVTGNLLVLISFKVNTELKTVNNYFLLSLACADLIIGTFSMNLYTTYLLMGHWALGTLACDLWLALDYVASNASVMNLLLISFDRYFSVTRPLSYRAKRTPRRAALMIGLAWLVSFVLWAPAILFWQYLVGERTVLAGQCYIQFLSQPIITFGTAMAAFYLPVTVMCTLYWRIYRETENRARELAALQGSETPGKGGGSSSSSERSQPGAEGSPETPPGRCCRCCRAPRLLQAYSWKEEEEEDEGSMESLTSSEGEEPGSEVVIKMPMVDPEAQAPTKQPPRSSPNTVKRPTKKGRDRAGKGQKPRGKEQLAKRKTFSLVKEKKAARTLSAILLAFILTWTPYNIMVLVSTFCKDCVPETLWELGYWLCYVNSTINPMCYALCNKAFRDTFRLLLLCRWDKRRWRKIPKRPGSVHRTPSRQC
Description: Competition radioligand binding, [3H]-pirenzepine, CHO-K1 membranes. The note with it: read-out: % inh. at 10 μM M1.
Description: as §2, §3

Assay [6] addresses T8, human histamine H1 receptor (Homo sapiens, UniProt P35367).
T8 construct: expressed in transfected cells; host or cells: CHO-K1
Description: Competition radioligand binding, [3H]-pyrilamine, CHO-K1 membranes.
Description: as §2, §3

The next assay deals with T9, human 5-HT2A receptor (Homo sapiens, UniProt P28223).
T9 construct: expressed in transfected cells; host or cells: CHO-K1
Description: Functional assay of inositol phosphate production (5-HT2A antagonism), CHO-K1 cells. The assay is classed as cell-based.

The subject of the next assay is mice. Description: Amphetamine-induced hyperactivity. The note with it: 5 mg/kg s.c., recorded 30 min, p < 0.0001.
Where [7] appears, read: mean ± SEM, read-out: pKi D2 (converted).

T2 sequence (P28223 whole entry): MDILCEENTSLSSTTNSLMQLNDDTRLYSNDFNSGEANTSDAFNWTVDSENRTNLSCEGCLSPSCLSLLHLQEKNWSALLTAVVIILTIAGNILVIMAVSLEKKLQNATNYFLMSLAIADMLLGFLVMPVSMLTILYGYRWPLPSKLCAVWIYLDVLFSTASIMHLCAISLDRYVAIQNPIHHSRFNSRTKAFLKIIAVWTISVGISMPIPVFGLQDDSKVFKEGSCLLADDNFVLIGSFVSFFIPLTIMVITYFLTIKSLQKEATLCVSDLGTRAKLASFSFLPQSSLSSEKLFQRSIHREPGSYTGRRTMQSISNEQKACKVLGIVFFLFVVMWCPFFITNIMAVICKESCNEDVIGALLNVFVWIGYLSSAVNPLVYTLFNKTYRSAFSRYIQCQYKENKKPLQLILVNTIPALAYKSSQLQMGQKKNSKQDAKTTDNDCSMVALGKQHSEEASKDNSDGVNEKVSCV
Sequence of human D2S receptor (P14416 1-414 isoform P14416-2): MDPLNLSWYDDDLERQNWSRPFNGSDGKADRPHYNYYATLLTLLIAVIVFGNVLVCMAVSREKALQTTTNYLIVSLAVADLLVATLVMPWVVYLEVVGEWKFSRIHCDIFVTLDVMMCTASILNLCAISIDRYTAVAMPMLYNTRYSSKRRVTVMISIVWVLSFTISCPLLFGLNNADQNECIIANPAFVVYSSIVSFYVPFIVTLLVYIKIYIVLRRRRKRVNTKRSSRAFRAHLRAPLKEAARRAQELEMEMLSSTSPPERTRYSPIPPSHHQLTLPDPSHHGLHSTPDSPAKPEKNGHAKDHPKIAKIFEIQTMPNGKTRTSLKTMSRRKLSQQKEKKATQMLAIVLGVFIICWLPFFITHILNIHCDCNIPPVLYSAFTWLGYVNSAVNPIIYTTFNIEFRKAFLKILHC
T1 sequence (P14416 1-414 isoform P14416-2): as above
T9 sequence (P28223 whole entry): as the sequence (P28223 whole entry) above
T8 sequence (P35367 whole entry): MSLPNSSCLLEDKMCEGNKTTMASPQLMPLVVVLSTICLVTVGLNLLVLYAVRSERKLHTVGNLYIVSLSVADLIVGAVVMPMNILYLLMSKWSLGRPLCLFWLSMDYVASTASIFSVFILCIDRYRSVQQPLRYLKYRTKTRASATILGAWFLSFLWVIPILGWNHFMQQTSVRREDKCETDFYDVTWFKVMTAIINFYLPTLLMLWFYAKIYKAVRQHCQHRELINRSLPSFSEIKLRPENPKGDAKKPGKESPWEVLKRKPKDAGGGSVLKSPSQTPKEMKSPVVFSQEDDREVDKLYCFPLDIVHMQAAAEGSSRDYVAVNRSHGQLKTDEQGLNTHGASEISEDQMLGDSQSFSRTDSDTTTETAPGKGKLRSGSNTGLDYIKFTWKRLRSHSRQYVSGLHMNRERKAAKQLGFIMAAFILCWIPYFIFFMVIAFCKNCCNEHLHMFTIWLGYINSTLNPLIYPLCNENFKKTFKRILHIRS
T6 sequence (P35462 whole entry): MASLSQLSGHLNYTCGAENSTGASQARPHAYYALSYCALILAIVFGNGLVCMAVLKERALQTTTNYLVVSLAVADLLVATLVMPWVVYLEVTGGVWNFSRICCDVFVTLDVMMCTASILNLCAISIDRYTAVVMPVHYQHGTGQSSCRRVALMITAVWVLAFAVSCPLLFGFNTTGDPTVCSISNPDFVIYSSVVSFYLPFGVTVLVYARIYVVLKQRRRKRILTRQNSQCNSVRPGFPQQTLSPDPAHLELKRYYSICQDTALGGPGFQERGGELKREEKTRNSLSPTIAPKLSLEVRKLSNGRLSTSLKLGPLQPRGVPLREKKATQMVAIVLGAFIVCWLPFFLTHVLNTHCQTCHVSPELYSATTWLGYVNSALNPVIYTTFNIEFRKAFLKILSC
T4 sequence (P34969 whole entry): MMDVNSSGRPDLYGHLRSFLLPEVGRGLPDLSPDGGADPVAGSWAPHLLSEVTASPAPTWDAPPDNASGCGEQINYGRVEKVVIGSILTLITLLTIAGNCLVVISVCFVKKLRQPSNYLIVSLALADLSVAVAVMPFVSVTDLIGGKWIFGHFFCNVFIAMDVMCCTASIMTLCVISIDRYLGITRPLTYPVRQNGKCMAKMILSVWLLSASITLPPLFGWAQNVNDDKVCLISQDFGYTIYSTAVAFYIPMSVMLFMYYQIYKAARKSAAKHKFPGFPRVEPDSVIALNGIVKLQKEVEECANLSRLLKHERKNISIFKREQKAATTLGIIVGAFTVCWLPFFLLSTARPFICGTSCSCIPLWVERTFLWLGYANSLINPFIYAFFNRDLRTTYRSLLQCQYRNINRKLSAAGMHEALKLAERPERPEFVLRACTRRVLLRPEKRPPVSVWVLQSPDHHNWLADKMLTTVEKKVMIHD
Description for human 5-HT1A receptor: The activity of selected compounds at 5-HT1A receptor was investigated in cell-based functional assays of cAMP signalling in the HEK293 cell line stably expressing the cloned human 5-HT1A receptor also employed for the radioligand binding assays. […] Test compounds were added to the assay plates from 5× working dilution intermediate plates, which were prepared by means of acoustic noncontact dispensing of the compounds, keeping vehicle concentration (0.1% DMSO) constant in the assay.
Description for human 5-HT2A receptor: The activity of selected compounds at 5-HT2A receptors was investigated in cell-based functional assays of IP production in the CHO-K1 cell line stably expressing the cloned human 5-HT2A receptor also employed for the radioligand binding assays. Twenty-four hours before the experiment, cells in culture were seeded in complete growth medium prepared with dialysed foetal bovine serum, in half-area, white, 96-well tissue culture plates (Corning®, Fisher Scientific SL, Madrid, Spain). At the day of assay, plates were washed with assay buffer (kit stimulation buffer) and incubated with test compounds for 10 min at 37 °C. Test compounds were added to the assay plates from 7× working dilution intermediate plates that were prepared by means of acoustic noncontact dispensing of the compounds, keeping vehicle concentration (0.1% DMSO) constant in the assay. […] After this time, cellular IP levels were quantified by using the HTRF-based inositol monophosphate kit IP-One Gq kit (Cisbio, Bioassays, Codolet, France) following the manufacturer’s protocol. […] Basal IP levels were determined in control wells in the absence of compound and agonist. […] Kb value of the compounds was estimated as described above for functional assays of cAMP signalling at D2 receptors.
Description for human 5-HT7 receptor: as §2, §3

Consider `COc1ccccc1N1CCN(CCCNC(=O)c2n[nH]c3ccccc23)CC1` [Compound 2, N-(3-(4-(2-methoxyphenyl)piperazin-1-yl)propyl)-1H-indazole-3-carboxamide], for which the Ki in [1] (read-out: Ki D2 (converted)) is 22.7 nM; in assay [2], 372 nM; in assay [3], 22.9 nM. Moreover, the “pKi 5-HT2A/pKi D2” value in assay [2] is recorded as 0.84.

Turning to `COc1cccc(N2CCN(CCCNC(=O)c3n[nH]c4ccccc34)CC2)c1` [Compound 3, N-(3-(4-(3-methoxyphenyl)piperazin-1-yl)propyl)-1H-indazole-3-carboxamide], the Ki in [1] (read-out: Ki D2 (converted)) was 315 nM; in assay [2], 184 nM; in assay [3] it was 110 nM. The “pKi 5-HT2A/pKi D2” value in assay [2] was found to be 1.04.

For the molecule `COc1ccc(N2CCN(CCCNC(=O)c3n[nH]c4ccccc34)CC2)cc1` [Compound 4, N-(3-(4-(4-methoxyphenyl)piperazin-1-yl)propyl)-1H-indazole-3-carboxamide], the results for the inhibition at 10 µM in assay [1] and in assay [3] were 46 ± 6% and 58.4 ± 1.8%, respectively. Further, the Ki in assay [2] was 491 nM.

Turning to `O=C(NCCCN1CCN(c2ccccn2)CC1)c1n[nH]c2ccccc12` [Compound 5, N-(3-(4-(pyridin-2-yl)piperazin-1-yl)propyl)-1H-indazole-3-carboxamide], the Ki was 339 nM in assay [1] (read-out: Ki D2 (converted)), 132 nM in [2] and 113 nM in assay [3]. In addition, the “pKi 5-HT2A/pKi D2” value in assay [2] was 1.06.

Take `O=C(NCCCN1CCN(c2cccnc2)CC1)c1n[nH]c2ccccc12` [Compound 6, N-(3-(4-(pyridin-3-yl)piperazin-1-yl)propyl)-1H-indazole-3-carboxamide]: the Ki is 1010 nM in [1] (read-out: Ki D2 (converted)), 2650 nM in assay [2] and 1380 nM in [3]. Further, the “pKi 5-HT2A/pKi D2” value in [2] was 0.93.

As to `O=C(NCCCN1CCN(c2ccncc2)CC1)c1n[nH]c2ccccc12` [Compound 7, N-(3-(4-(pyridin-4-yl)piperazin-1-yl)propyl)-1H-indazole-3-carboxamide], the inhibition at 10 µM in assay [1] is 0%; in [2], 0%; in assay [3] it was 27.9 ± 2.7%.

For the molecule `O=C(NCCCN1CCN(c2ncccn2)CC1)c1n[nH]c2ccccc12` [Compound 8, N-(3-(4-(pyrimidin-2-yl)piperazin-1-yl)propyl)-1H-indazole-3-carboxamide], the figures for the Ki in [1] (read-out: Ki D2 (converted)), in assay [2] and in assay [3] were 480 nM, 807 nM and 238 nM, respectively. In addition, in assay [2], the “pKi 5-HT2A/pKi D2” value stood at 0.96.

On to `O=C(NCCCN1CCN(c2ccccc2F)CC1)c1n[nH]c2ccccc12` [Compound 9, N-(3-(4-(2-fluorophenyl)piperazin-1-yl)propyl)-1H-indazole-3-carboxamide], for which the Ki in assay [1] (setting [7]) is 41.7 nM; in assay [1] (read-out: Ki D2 (converted)), 42.2 nM; in [2] it was 117 nM; in assay [3], 135 nM. Moreover, the “pKi 5-HT2A/pKi D2” value in [2] was 0.94.

As usually defined, the Kb is the equilibrium dissociation constant of an antagonist, usually derived from a functional assay. In general, EC50 refers to the midpoint of the concentration-response curve. As for `O=C(NCCCN1CCN(c2ccc(F)cc2)CC1)c1n[nH]c2ccccc12` [Compound 11, N-(3-(4-(4-fluorophenyl)piperazin-1-yl)propyl)-1H-indazole-3-carboxamide], the figures for the Kb at human D2S receptor and at human 5-HT2A receptor (read-out: 5-HT2A antagonism (IP signalling) Kb) were 99.1 nM and 19.2 ± 7.2 nM, respectively. For the same molecule, the inhibition at 1 µM at human D2S receptor (CHO-K1, read-out: % of inhibition of 1 µM dopamine response) was 21.3 ± 4.3%. In addition, the inhibition at 10 µM stood at 49.7 ± 8% at human D2S receptor (CHO-K1, read-out: D2 antagonism %inh. of DA response); 75.3 ± 6.8% on human 5-HT1A receptor (HEK293, 10 µM compound, 1 µM forskolin, read-out: 5-HT1A agonism %inh. of FSK response); 0% in assay [5]; 103 ± 2.2% at human 5-HT2A receptor (CHO-K1, read-out: 5-HT2A antagonism %inh. of 5-HT response). Also, the Ki was 450 nM in [1] (read-out: Ki D2 (converted)); 196 nM at human 5-HT7 receptor; 12.6 nM in [2]; 5010 nM in [4]; 364 nM in assay [6]; 607 nM in assay [3]. The “pKi 5-HT2A/pKi D2” value in assay [2] is given as 1.24. Moreover, at human 5-HT1A receptor, a half-maximal response (EC50) required 5600 ± 1200 nM.

`O=C(NCCCN1CCN(c2ccccc2C(F)(F)F)CC1)c1n[nH]c2ccccc12` [Compound 12, N-(3-(4-(2-(trifluoromethyl)phenyl)piperazin-1-yl)propyl)-1H-indazole-3-carboxamide]: the Ki in [1] (setting [7]) was 44.7 nM; in assay [1] (read-out: Ki D2 (converted)), 45.2 nM; in assay [2], 832 nM; in assay [3], 423 nM. In assay [2], the “pKi 5-HT2A/pKi D2” value was 0.83.

For `O=C(NCCCN1CCN(c2ccccc2Cl)CC1)c1n[nH]c2ccccc12` [Compound 13, N-(3-(4-(2-chlorophenyl)piperazin-1-yl)propyl)-1H-indazole-3-carboxamide], the Ki in assay [1] (read-out: Ki D2 (converted)) was 69.7 nM; in assay [2] it was 134 nM; in assay [3], 107 nM. Further, the “pKi 5-HT2A/pKi D2” value in assay [2] was 0.96.

In the case of `CSc1ccccc1N1CCN(CCCNC(=O)c2n[nH]c3ccccc23)CC1` [Compound 14, N-(3-(4-(2-(methylthio)phenyl)piperazin-1-yl)propyl)-1H-indazole-3-carboxamide], the Ki in assay [1] (read-out: Ki D2 (converted)) is 7.05 nM; in [2], 217 nM; in assay [3], 12.4 nM. For the same molecule, the “pKi 5-HT2A/pKi D2” value in [2] came to 0.82.

With `CCOc1ccccc1N1CCN(CCCNC(=O)c2n[nH]c3ccccc23)CC1` [Compound 15, N-(3-(4-(2-ethoxyphenyl)piperazin-1-yl)propyl)-1H-indazole-3-carboxamide], the Ki was 19.8 nM in [1] (read-out: Ki D2 (converted)), 280 nM in assay [2] and 46.9 nM in [3]. For the same molecule, the “pKi 5-HT2A/pKi D2” value in [2] is 0.85.

For the molecule `O=C(NCCCN1CCN(C2CCCCC2)CC1)c1n[nH]c2ccccc12` [Compound 16, N-(3-(4-cyclohexylpiperazin-1-yl)propyl)-1H-indazole-3-carboxamide], the results for the inhibition at 10 µM in assay [1], in assay [2] and in assay [3] were 19 ± 6.8%, 25.6 ± 9% and 56.7 ± 1.6%, respectively.

With `CC(N)Cc1ccccc1` (stereo not shown) [amphetamine, reference compound], in the assay on mice, the “Locomotor activity vs. vehicle group” value is on record as “increased locomotor activity”.
